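48-hour exposure; five concentrations; linearly interpolated endpoints. Abbreviation: GI50, concentration required for 50% inhibition of growth.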 The source made the active and inactive calls. Cut-off read from the data, not from the text of the source: active = GI50 up to about 1.1 µM and inactive = higher.
How the values were obtained:
Assay in all cases: NCI anticancer screen, dose series, 48 h
MCF7 = system: MCF7
CCRF-CEM = system: CCRF-CEM
T47D = system: T47D
OVCAR-4 = system: OVCAR-4
SNB-75 = system: SNB-75
SW-620 = system: SW-620
SN12C = system: SN12C
SK-MEL-28 = system: SK-MEL-28
MDA-N = system: MDA-N
MDA-MB-231 = system: MDA-MB-231
NCI/ADR-RES = system: NCI/ADR-RES
SK-OV-3 = system: SK-OV-3
HCT-15 = system: HCT-15
786-0 = system: 786-0
SF-539 = system: SF-539
SNB-19 = system: SNB-19
OVCAR-3 = system: OVCAR-3
HOP-92 = system: HOP-92
DU-145 = system: DU-145
LOX IMVI = system: LOX IMVI

Row | Compound | GI50 (MCF7) | GI50 (CCRF-CEM) | GI50 (T47D) | GI50 (OVCAR-4) | GI50 (SNB-75) | GI50 (SW-620) | GI50 (SN12C) | GI50 (SK-MEL-28) | GI50 (MDA-N) | GI50 (MDA-MB-231) | GI50 (NCI/ADR-RES) | GI50 (SK-OV-3) | GI50 (HCT-15) [µM] | GI50 (786-0) | GI50 (SF-539) | GI50 (SNB-19) | GI50 (OVCAR-3) | GI50 (HOP-92) | GI50 (DU-145) | GI50 (LOX IMVI)
1 | COc1ccc2[nH]c3c(c2c1)CCn1c-3nc2ccccc2c1=O | > 25 µM (inactive) | > 25 µM (inactive) | > 25 µM (inactive) | > 25 µM (inactive) | > 25 µM (inactive) | > 25 µM (inactive) | > 25 µM (inactive) | > 25 µM (inactive) | > 25 µM (inactive) | > 25 µM (inactive) | > 25 µM (inactive) | > 25 µM (inactive) | > 25 | > 25 µM (inactive) | > 25 µM (inactive) | > 25 µM (inactive) |  |  |  | 
2 | CC(C)[Si](OC12CCC(CC1O)CC2CO)(C(C)C)C(C)C (stereo unspecified) | 12 µM (inactive) | 13.4 µM (inactive) | 9.77 µM (inactive) | 11.5 µM (inactive) | 13.9 µM (inactive) | 21.1 µM (inactive) | 22 µM (inactive) | 20.4 µM (inactive) |  | 19.7 µM (inactive) | 15 µM (inactive) | 14.4 µM (inactive) | 14.1 | 10.5 µM (inactive) | 23.4 µM (inactive) | 15.3 µM (inactive) | 14.5 µM (inactive) | 12.1 µM (inactive) | 16.9 µM (inactive) | 
3 | O=C(O)CCC1NC(/C(=C/c2ccccc2O)NC(=O)c2ccccc2)OC1=O (stereo unspecified) | 3.39 µM (inactive) | > 100 µM (inactive) | 16 µM (inactive) | > 100 µM (inactive) | 23.2 µM (inactive) | > 100 µM (inactive) | > 100 µM (inactive) | > 100 µM (inactive) |  | 46.9 µM (inactive) | 88.5 µM (inactive) | 44.2 µM (inactive) | > 100 | 46.7 µM (inactive) | 95.3 µM (inactive) | 32.5 µM (inactive) | > 100 µM (inactive) | > 100 µM (inactive) | > 100 µM (inactive) | > 100 µM (inactive)
4 | O=C(O)c1ccc(/N=C(\C(=N\c2ccc(C(=O)O)cc2)c2ccccc2)c2ccccc2)cc1 | > 100 µM (inactive) |  | > 100 µM (inactive) | > 100 µM (inactive) | > 100 µM (inactive) | > 100 µM (inactive) | > 100 µM (inactive) | > 100 µM (inactive) | > 100 µM (inactive) | > 100 µM (inactive) | > 100 µM (inactive) | > 100 µM (inactive) | > 100 | > 100 µM (inactive) |  | > 100 µM (inactive) | > 100 µM (inactive) |  | > 100 µM (inactive) | > 100 µM (inactive)
5 | CCCCCCCCCC(=O)NC(CCC(=O)N(CCNC(=O)c1nc(-c2ccccc2)oc1-c1ccccc1)Cc1ccccc1)C(=O)O (stereo unspecified) |  |  | 20.4 µM (inactive) | 20.5 µM (inactive) | 14.5 µM (inactive) | 23.3 µM (inactive) | 18.7 µM (inactive) | 22.3 µM (inactive) | 18.4 µM (inactive) | 19.9 µM (inactive) | 16.6 µM (inactive) | 16.9 µM (inactive) | 16 | 17.7 µM (inactive) | 24 µM (inactive) | 17.4 µM (inactive) | 16.3 µM (inactive) | 17.6 µM (inactive) | 20.3 µM (inactive) | 18.6 µM (inactive)
6 | c1ccc(C[N+]23C(CC[C@H]2c2ccccc2)CC[C@H]3c2ccccc2)cc1 (stereo partly specified) | 24.4 µM (inactive) | 27.4 µM (inactive) | 8.47 µM (inactive) | 31 µM (inactive) | 21.4 µM (inactive) | 43.4 µM (inactive) | 37.5 µM (inactive) | 34.6 µM (inactive) | 21.2 µM (inactive) | 34.9 µM (inactive) |  | 67.9 µM (inactive) |  | 32.4 µM (inactive) |  | 29.5 µM (inactive) | 14.3 µM (inactive) | 13.2 µM (inactive) | 32.9 µM (inactive) | 29.2 µM (inactive)
7 | COc1cccc2cc(C(N)=O)c(=N)oc12 |  | 40.6 µM (inactive) | 37.3 µM (inactive) | 53.5 µM (inactive) | 63.2 µM (inactive) | 99.1 µM (inactive) | 39.4 µM (inactive) | 46.5 µM (inactive) | 59.7 µM (inactive) | 65.2 µM (inactive) | 57.1 µM (inactive) | 49.9 µM (inactive) | 52.6 | 31.7 µM (inactive) | 41.5 µM (inactive) | 82 µM (inactive) | 36.9 µM (inactive) | 81.8 µM (inactive) | 92.5 µM (inactive) | 30.7 µM (inactive)
8 | COc1cccc2c1OC(c1cccc3ccccc13)C([N+](=O)[O-])=C2 (stereo unspecified) | 0.728 µM (active) | 0.312 µM (active) | 2.22 µM (inactive) | 3.32 µM (inactive) | 1.32 µM (inactive) |  | 2 µM (inactive) | 1.53 µM (inactive) | 1.93 µM (inactive) | 2.12 µM (inactive) | 1.71 µM (inactive) | 3.11 µM (inactive) | 1.55 | 1.87 µM (inactive) |  | 1.53 µM (inactive) | 1.34 µM (inactive) |  | 2.65 µM (inactive) | 1.04 µM (active)

From ChEMBL document CHEMBL1201862, “PubChem BioAssay data set” (2004)
